Experimental data reported in US20180177749A1, “USE OF CYP EXPRESSION TO DIRECT THERAPEUTIC INTERVENTION IN CANCER” (REGENTS OF THE UNIVERSITY OF MINNESOTA, priority 2016, published 2018).

Tested on: MDA-MB-231 xenograft
Assay: RPPA of protein expression, MDA-MB-231 xenograft endpoint analysis
Format: in vivo, nude mice
Conditions: 4 mg/kg/day vs. PBS
Protocol: Frozen xenograft tissue samples were embedded in OCT, and 8 μm sections were obtained using a cryostat. […] The resulting whole tissue lysates were boiled for 8 min at 100° C. and then printed onto a nitrocellulose slide (Avid, Grace Biolabs) along with a BSA protein concentration curve to estimate total protein concentration in each lysate. Total protein levels were assessed in each sample by staining with Sypro Ruby Protein Blot Stain (Invitrogen) according to manufacturer's instructions.
The total protein concentration in each sample was estimated by printing onto a nitrocellulose slide along with a BSA standard concentration curve, and total protein levels were assessed by staining with Sypro Ruby Protein Blot Stain (Invitrogen) according to manufacturer's instructions. Tissue lysates were diluted to 250 μg/ml in extraction buffer and stored at −80° C. prior to printing of arrays. RPPA printing and analysis of xenograft samples was conducted as previously described (Wulfkuhle et al., Clin Cancer Res. 2012; 18:6426-35). Antibody staining intensities were quantified using the MicroVigene v5 Software Package (Vigenetech). Signaling pathway activation was evaluated by staining the arrays with 156 antibodies against signaling endpoints, mainly phosphorylated and cleaved protein products. Before use for RPPA analysis, antibody specificity was confirmed by Western blot and analysis as previously described (Wulfkuhle et al., Clin Cancer Res. 2012; 18:6426-35).

[1] = *separate RPPA analysis, separate β actin probe

CCCCCCNC(=N)NC(=N)NCc1ccccc1 [HBB, N1-hexyl-N5-benzyl-biguanide]
fold change: 4EBP1 S65: 1.143 | fold change: 4EBP1 T37/46: 0.828 | fold change: 4EBP1 T70: 1.117 | fold change: A-Raf S299: 1.335 | fold change: AKT S473: 1.795 | fold change: AKT T308: 1.987 | fold change: ALK: 1.368 | fold change: ALK Y1604: 1.302 | fold change: AMPKalpha S485: 2.359 | fold change: AMPKbeta S108: 1.081 | fold change: ATF2 T69/71: 0.959 | fold change: ATM S1981: 1.438 | fold change: ATP CItrate Lyase S454: 1.229 | fold change: ATR S428: 1.345 | fold change: AXL: 1.199 | fold change: Acetyl-CoA Carboxylase S79: 1.295 | fold change: Actin beta: 1.000 | fold change: Aurora A T288/B T232/C T198: 1.651 | fold change: B-RAF: 1.341 | fold change: B-Raf S445: 1.392 | fold change: BAD: 1.198 | fold change: BAD S112: 1.355 | fold change: BAD S136: 1.550 | fold change: BCL-2: 1.315 | fold change: BIM: 1.211 | fold change: Bak: 1.254 | fold change: Bax: 1.132 | fold change: Bcl_xL: 1.275 | fold change: Beclin 1: 1.235 | fold change: CREB S133: 1.164 | fold change: Cl Caspase 3 D175: 1.484 | fold change: Cl Caspase 9 D315: 1.437 | fold change: Cl Caspase 9 D330: 1.492 | fold change: Cleaved PARP D214: 1.223 | fold change: Cofilin S3: 1.783 | fold change: CrkL Y207: 1.186 | fold change: Cyclin A: 1.513 | fold change: Cyclin B1 V152: 1.294 | fold change: Cyclin D1 (G124-326): 1.272 | fold change: Cyclin D1 T286: 1.693 | fold change: E-Cadherin: 1.903 | fold change: EGFR: 1.184 | fold change: EGFR Y992: 1.970 | fold change: EGFR Y1068: 1.557 | fold change: EGFR Y1148: 1.407 | fold change: EGFR Y1173: 1.388 | fold change: ER TOTAL: 1.304 | fold change: ER alpha S118: 1.293 | fold change: ERK 1-2 T202/Y204: 1.337 | fold change: ERK TOTAL: 1.242 | fold change: Elk S383: 1.926 | fold change: Ephrin A3 Y799/A4 Y799/A5 Y833: 1.553 | fold change: ErbB2/HER2 Y877: 1.283 | fold change: ErbB2/HER2 Y1248: 1.717 | fold change: ErbB3/HER3: 0.828 | fold change: ErbB3/HER3 Y1197: 1.363 | fold change: ErbB3/HER3 Y1289: 1.558 | fold change: FAK Y576/577: 1.291 | fold change: FKHR T24/FKHRL1 T32: 1.039 | fold change: FKHRL1 S253: 1.671 | fold change: FOXO1 S256: 1.338 | fold change: GRB2: 1.013 | fold change: GSK-3alpha/beta S21/9: 1.294 | fold change: HIF-1 alpha: 1.096 | fold change: HSP27 S82: 0.821 | fold change: HSP70: 1.429 | fold change: HSP90a T5/7: 1.555 | fold change: Heregulin: 0.654 | fold change: Histone H3 S28: 1.222 | fold change: IGF1R Y1135/36-IR Y1150/51: 1.118 | fold change: IGF-1R Y1131/IR Y1146: 1.596 | fold change: IGFBP7: 1.180 | fold change: IL6: 1.192 | fold change: IRS1: 0.996 | fold change: IkappaB-alpha S32/36: 1.317 | fold change: Insulin Receptor Beta: 1.219 | fold change: Jak2 Y1007: 1.647 | fold change: KI67: 1.120 | fold change: LC3B: 1.109 | fold change: LIMK1 T508/LIMK2 T505: 1.351 | fold change: LKB1 S428: 1.652 | fold change: MARCKS S152/156: 1.421 | fold change: MCSFR Y723: 1.215 | fold change: MDM2 S166: 1.189 | fold change: MEK 1/2 S217/221: 1.772 | fold change: Met Y1234/1235: 1.556 | fold change: Musashi: 1.320 | fold change: NF-kappaB p65 S536: 1.655 | fold change: PAK1 S199/204-PAK2 S192/197: 1.852 | fold change: PAK1 T423/PAK2 T402: 1.245 | fold change: PDGFR alpha Y754: 1.266 | fold change: PDGFR beta: 1.147 | fold change: PDGFR beta Y716: 0.981 | fold change: PDK1 S241: 1.118 | fold change: PDL1: 0.548 | fold change: PKC delta/theta S643/S676: 1.447 | fold change: PKC zeta/lambda T410/403: 0.971 | fold change: PLK1 T210: 1.301 | fold change: PTEN: 1.334 | fold change: PTEN S380: 1.440 | fold change: RAS TOTAL: 1.486 | fold change: Ras_GRF1: 1.237 | fold change: Rb S780: 1.516 | fold change: Ret Y905: 1.885 | fold change: Ros Y2274: 1.481 | fold change: S6 Ribosomal Protein S240/244: 0.457 | fold change: SAPK/JNK T183/Y185: 1.410 | fold change: SGK1 S78: 1.510 | fold change: SMAD2 S245/250/255: 1.425 | fold change: STAT3 S727: 1.302 | fold change: Shc Y317: 1.307 | fold change: Src Y527: 1.356 | fold change: Src family Y416: 0.804 | fold change: Stat 1 Y701: 1.092 | fold change: Stat3 Y705: 1.421 | fold change: Stat 5 Y694: 0.929 | fold change: TGF-beta: 1.188 | fold change: TNF alpha: 1.119 | fold change: Tuberin/TSC2 Y1571: 1.417 | fold change: VEGFR2 Y996: 1.205 | fold change: Vimentin: 1.021 | fold change: XIAP: 1.311 | fold change: c-Abl T735: 1.596 | fold change: c-Abl Y245: 1.215 | fold change: c-ErbB2/HER2: 1.184 | fold change: c-Kit Y703: 1.408 | fold change: c-Met TOTAL: 1.220 | fold change: c-Myc: 1.078 | fold change: c-Raf S338: 1.229 | fold change: eIF4G S1108: 1.471 | fold change: mTOR: 0.679 | fold change: mTOR S2448: 1.515 | fold change: p27 Kip1: 1.253 | fold change: p27 T187: 1.152 | fold change: p38 MAP Kinase T180/Y182: 1.075 | fold change: p53: 1.390 | fold change: p53 S15: 1.586 | fold change: p70S6 Kinase: 1.193 | fold change: p70 S6 Kinase S371: 1.621 | fold change: p70 S6 Kinase T389: 2.148 | fold change: p70 S6 Kinase T412: 1.352 | fold change: p90RSK T359/S363: 1.248 | fold change: pYAP S127: 1.022 | fold change: AMPK T172* [1]: 3.561 | fold change: AMPK total* [1]: 0.555 | fold change: PKM2 Y105* [1]: 1.403 | fold change: PKM2 total* [1]: 1.339
